Results: PubChem BioAssay AID2060341 (Molecular Pharmacology Branch, DTP, NCI, 2025)
“And” between values parts separate entries of the source, which are not always exact repeats. Equal values may be shown once.

System: 327498-153-R-J2-PDC multicell spheroid viability
Assay: Anticancer human tumor 327498-153-R-J2-PDC patient-derived uterine carcinosarcoma cell line growth inhibition [IpAb]
Conditions: for viability, T/C: stronger effect = lower value
Excerpt: Combinatorial screen of targeted agents with ipatasertib and abemaciclib in multi-cell type tumor spheroids
A high-throughput screen of multi-cell type tumor spheroids was designed to identify active combinations of targeted small molecules and ipatasertib or abemaciclib. Complex spheroids include a stromal component modeled by human endothelial cells (HUVEC) and fibroblasts modeled by human mesenchymal stem cells (MSCs). The concentration ranges selected for each drug and investigational agent were based upon clinically achievable concentrations if the clinical Cmax of the agent was known.
Compounds. The drugs and investigational agents: ipatasertib (NSC767898), abemaciclib(NSC768073), selumetinib (NSC741078), trametinib (758246), adavosertib (NSC754352), everolimus (NSC733504), sapanisertib (NSC764658), vemurafenib (NSC761431), venetoclax (NSC766270), copanlisib (NSC809693), apelisib (NSC765974), palbociblib (NSC758247), vemurafenib (NSC761431), dabrafenib (NSC764134), ravoxertinib (NSC781343), BMS-387032 (NSC767048), sotorasib (NSC818433), talazoparib (NSC767125) and afursertib (NSC778305), were obtained from the National Cancer Institute (NCI) Developmental Therapeutics Program Chemical Repository. The FDA-approved anticancer drug set is available from the NCI Developmental Therapeutics Program. […] The stock solutions were prepared in dimethyl sulfoxide (DMSO, Sigma-Aldrich, St. Louis, MO, cat. D2650) at 800-fold the tested concentration and stored at -70 degrees C prior to their use. All drugs and investigational agents were tested over a range starting from a high concentration at or near the clinical Cmax and decreasing in half-log increments. If the clinical Cmax for an agent had not been determined, the highest concentration tested was 10 microM.
NCI60 Cell Culture. NCI60 cell lines were obtained from the NCI Developmental Therapeutics Program Tumor Repository. For each lot of cells, the Repository performed Applied Biosystems AmpFLSTR Identifiler testing with PCR amplification to confirm consistency with the published Identifier STR profile for each cell line. Cells were kept in continuous culture for no more than 20 passages. The optimal seeding densities for each of the cell lines at each time point assessed were determined prior to performing the concentration response studies. Briefly, the NCI60 human tumor lines were grown as monolayers in RPMI 1640 medium supplemented with 10% FBS and 2 mmol/L L-glutamine.
An additional 9 lines were from the NCI60 cell line panel including MDA-MB-231 breast carcinoma, MDA-MB-468 breast carcinoma, MCF7 breast carcinoma, Hs578T breast carcinoma, MALME-3M melanoma, SK-MEL-2 melanoma, SK-OV-3 ovarian carcinoma, DU-145 prostate carcinoma, PC-3 prostate carcinoma, all cell lines along with major genetic alterations are listed on Table 2. Pooled donor human umbilical vein endothelial cells (HUVEC, Lonza, cat. CC-2519) and human mesenchymal stem cells (hMSC, Lonza, cat. PT-2501) were purchased from Lonza (Walkersville, MD).
PDMR cell lines were grown in complete medium (DC medium): Dulbecco's modified Eagle's medium (DMEM)/F12 supplemented with 5% fetal bovine serum (FBS), 2 mM L-glutamine, 100 U/mL penicillin and 100 µg/ml streptomycin, 0.4 µg/ml hydrocortisone, 10 ng/ml epidermal growth factor (EGF) recombinant human protein, 24 µg/mL adenine, and 0.1 mg/mL primocin. During culture from frozen stock vials, PDMR cells were cultured in the same medium containing 10 µM Y-27632 (see Table 3). The PDCs were cultured in complete DMEM/F12 media without 10 microM Y-27632 dihydrochloride for at least two passages prior to the screen. The pooled donor HUVEC and hMSC were cultured in endothelial cell growth medium 2 (PromoCell, Heidelberg, Germany, cat. C-22011) and mesenchymal stem cell growth medium 2 (PromoCell, cat. C-28009), respectively. For all experiments, HUVEC and hMSC were used at passages </=5.
[…]

[1] = curve of first compound, second compound 0.01 µM
[2] = curve of first compound, second compound 0.0316 µM
[3] = curve of first compound, second compound 0.1 µM
[4] = curve of first compound, second compound 0.316 µM
[5] = curve of first compound, second compound 1 µM
[6] = second compound 0.01 µM, first compound 0.0316 µM
[7] = second compound 0.01 µM, first compound 0.1 µM
[8] = second compound 0.01 µM, first compound 0.316 µM
[9] = second compound 0.01 µM, first compound 1 µM
[10] = second compound 0.01 µM, first compound 3.16 µM
[11] = second compound 0.01 µM, first compound 10 µM
[12] = second compound 0.0316 µM, first compound 0.0316 µM
[13] = second compound 0.0316 µM, first compound 0.1 µM
[14] = second compound 0.0316 µM, first compound 0.316 µM
[15] = second compound 0.0316 µM, first compound 1 µM
[16] = second compound 0.0316 µM, first compound 3.16 µM
[17] = second compound 0.0316 µM, first compound 10 µM
[18] = second compound 0.1 µM, first compound 0.0316 µM
[19] = second compound 0.1 µM, first compound 0.1 µM
[20] = second compound 0.1 µM, first compound 0.316 µM
[21] = second compound 0.1 µM, first compound 1 µM
[22] = second compound 0.1 µM, first compound 3.16 µM
[23] = second compound 0.1 µM, first compound 10 µM
[24] = second compound 0.316 µM, first compound 0.0316 µM
[25] = second compound 0.316 µM, first compound 0.1 µM
[26] = second compound 0.316 µM, first compound 0.316 µM
[27] = second compound 0.316 µM, first compound 1 µM
[28] = second compound 0.316 µM, first compound 3.16 µM
[29] = second compound 0.316 µM, first compound 10 µM
[30] = second compound 1 µM, first compound 0.0316 µM
[31] = second compound 1 µM, first compound 0.1 µM
[32] = second compound 1 µM, first compound 0.316 µM
[33] = second compound 1 µM, first compound 1 µM
[34] = second compound 1 µM, first compound 3.16 µM
[35] = second compound 1 µM, first compound 10 µM
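Further: spheroids exposed to agents for 7 days.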
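Wherever viability, T/C is given: 100% = DMSO vehicle control viability.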

CC(C)(C)c1cnc(CSc2cnc(NC(=O)C3CCNCC3)s2)o1 + CCN1CCN(Cc2ccc(Nc3ncc(F)c(-c4cc(F)c5nc(C)n(C(C)C)c5c4)n3)nc2)CC1
IC50 [1]: 142 nM
IC50 [2]: 105 nM
IC50 [3]: 83.4 nM
IC50 [4]: 37.5 nM
IC50 [5]: 34.4 nM
viability, T/C (second compound 0.01 µM, first compound 0.00949 µM): 90%
viability, T/C (second compound 0.01 µM, first compound 0.03 µM): 80.7%
viability, T/C (second compound 0.01 µM, first compound 0.0949 µM): 75.5%
viability, T/C (second compound 0.01 µM, first compound 0.3 µM): 2.61%
viability, T/C (second compound 0.01 µM, first compound 0.949 µM): 0.63%
viability, T/C (second compound 0.01 µM, first compound 3 µM): 0.6%
viability, T/C (second compound 0.0316 µM, first compound 0.00949 µM): 76.8%
viability, T/C (second compound 0.0316 µM, first compound 0.03 µM): 68.4%
viability, T/C (second compound 0.0316 µM, first compound 0.0949 µM): 54.6%
viability, T/C (second compound 0.0316 µM, first compound 0.3 µM): 1.44%
viability, T/C (second compound 0.0316 µM, first compound 0.949 µM): 0.56%
viability, T/C (second compound 0.0316 µM, first compound 3 µM): 0.66%
viability, T/C (second compound 0.1 µM, first compound 0.00949 µM): 57.6%
viability, T/C (second compound 0.1 µM, first compound 0.03 µM): 67.6%
viability, T/C (second compound 0.1 µM, first compound 0.0949 µM): 48.4%
viability, T/C (second compound 0.1 µM, first compound 0.3 µM): 0.6%
viability, T/C (second compound 0.1 µM, first compound 0.949 µM): 0.61%
viability, T/C (second compound 0.1 µM, first compound 3 µM): 0.61%
viability, T/C (second compound 0.316 µM, first compound 0.00949 µM): 51.6%
viability, T/C (second compound 0.316 µM, first compound 0.03 µM): 54.3%
viability, T/C (second compound 0.316 µM, first compound 0.0949 µM): 37.6%
viability, T/C (second compound 0.316 µM, first compound 0.3 µM): 0.81%
viability, T/C (second compound 0.316 µM, first compound 0.949 µM): 0.6%
viability, T/C (second compound 0.316 µM, first compound 3 µM): 0.72%
viability, T/C (second compound 1 µM, first compound 0.00949 µM): 55.4%
viability, T/C (second compound 1 µM, first compound 0.03 µM): 50.8%
viability, T/C (second compound 1 µM, first compound 0.0949 µM): 29.8%
viability, T/C (second compound 1 µM, first compound 0.3 µM): 0.56%
viability, T/C (second compound 1 µM, first compound 0.949 µM): 1.62%
viability, T/C (second compound 1 µM, first compound 3 µM): 0.76%

CC1(C)CCC(CN2CCN(c3ccc(C(=O)NS(=O)(=O)c4ccc(NCC5CCOCC5)c([N+](=O)[O-])c4)c(Oc4cnc5[nH]ccc5c4)c3)CC2)=C(c2ccc(Cl)cc2)C1 + CCN1CCN(Cc2ccc(Nc3ncc(F)c(-c4cc(F)c5nc(C)n(C(C)C)c5c4)n3)nc2)CC1
IC50 [1]: 5020 nM
IC50 [2]: 5020 nM
IC50 [3]: 4470 nM
IC50 [4]: 3890 nM
IC50 [5]: 3560 nM
viability, T/C [6]: 100%
viability, T/C [7]: 91.6%
viability, T/C [8]: 96.6%
viability, T/C [9]: 86.9%
viability, T/C [10]: 78.4%
viability, T/C [11]: 10.2%
viability, T/C [12]: 78%
viability, T/C [13]: 75.8%
viability, T/C [14]: 74.9%
viability, T/C [15]: 77.2%
viability, T/C [16]: 77.6%
viability, T/C [17]: 9.98%
viability, T/C [18]: 67.4%
viability, T/C [19]: 71.5%
viability, T/C [20]: 65.1%
viability, T/C [21]: 75.9%
viability, T/C [22]: 67.8%
viability, T/C [23]: 8.52%
viability, T/C [24]: 61.8%
viability, T/C [25]: 54.3%
viability, T/C [26]: 58.8%
viability, T/C [27]: 61.4%
viability, T/C [28]: 61.3%
viability, T/C [29]: 6.66%
viability, T/C [30]: 62.9%
viability, T/C [31]: 60.7%
viability, T/C [32]: 54.5%
viability, T/C [33]: 57.8%
viability, T/C [34]: 54.8%
viability, T/C [35]: 9.15%

CCCS(=O)(=O)Nc1ccc(F)c(C(=O)c2c[nH]c3ncc(-c4ccc(Cl)cc4)cc23)c1F
viability, T/C (compound 0.0316 µM): 105% and 102%
viability, T/C (compound 0.1 µM): 116% and 103%
viability, T/C (compound 0.316 µM): 106% and 101%
viability, T/C (compound 1 µM): 106% and 98.7%
viability, T/C (compound 3.16 µM): 101% and 96.1%
viability, T/C (compound 10 µM): 87.3% and 92.8%
IC50 (curve of compound): > 10000 nM

Cn1ncc(Cl)c1-c1cc(C(=O)NC(CN)Cc2cccc(F)c2)sc1Cl (configuration not stated) + CCN1CCN(Cc2ccc(Nc3ncc(F)c(-c4cc(F)c5nc(C)n(C(C)C)c5c4)n3)nc2)CC1
IC50 [1]: 312 nM
IC50 [2]: 125 nM
IC50 [3]: 50.1 nM
IC50 [4]: < 31.6 nM
IC50 [5]: 64.4 nM
viability, T/C [6]: 78%
viability, T/C [7]: 60.3%
viability, T/C [8]: 48.7%
viability, T/C [9]: 35.4%
viability, T/C [10]: 24.5%
viability, T/C [11]: 0.14%
viability, T/C [12]: 64.5%
viability, T/C [13]: 49%
viability, T/C [14]: 40.5%
viability, T/C [15]: 27.9%
viability, T/C [16]: 24%
viability, T/C [17]: 0.12%
viability, T/C [18]: 53.4%
viability, T/C [19]: 46.2%
viability, T/C [20]: 34.4%
viability, T/C [21]: 28.1%
viability, T/C [22]: 21.1%
viability, T/C [23]: 0.12%
viability, T/C [24]: 48.9%
viability, T/C [25]: 44.5%
viability, T/C [26]: 33.9%
viability, T/C [27]: 28.9%
viability, T/C [28]: 20.6%
viability, T/C [29]: 0.14%
viability, T/C [30]: 54.1%
viability, T/C [31]: 49.1%
viability, T/C [32]: 34.9%
viability, T/C [33]: 29.9%
viability, T/C [34]: 21.7%
viability, T/C [35]: 0.2%
